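Cultured in 96-well plates, cells were exposed to test compound for 48 hours across five concentrations. TGI denotes the concentration required for complete inhibition of growth.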
Columns and labels:
Experiment in all cases: DTP human tumour cell line panel, 48 h
786-0 renal = test system: 786-0 renal
A498 renal = test system: A498 renal
A549 NSCLC = test system: A549 NSCLC
ACHN renal = test system: ACHN renal
BT-549 breast = test system: BT-549 breast
CAKI-1 renal = test system: CAKI-1 renal
CCRF-CEM leukemia = test system: CCRF-CEM leukemia
COLO 205 colon = test system: COLO 205 colon
DU-145 prostate = test system: DU-145 prostate
EKVX NSCLC = test system: EKVX NSCLC
HCC-2998 colon = test system: HCC-2998 colon
HCT-116 colon = test system: HCT-116 colon
HCT-15 colon = test system: HCT-15 colon
HL-60(TB) leukemia = test system: HL-60(TB) leukemia
HOP-62 NSCLC = test system: HOP-62 NSCLC
HOP-92 NSCLC = test system: HOP-92 NSCLC
HS 578T breast = test system: HS 578T breast
HT29 colon = test system: HT29 colon
IGROV1 ovarian = test system: IGROV1 ovarian
K-562 leukemia = test system: K-562 leukemia
KM12 colon = test system: KM12 colon
LOX IMVI melanoma = test system: LOX IMVI melanoma
M14 melanoma = test system: M14 melanoma
MALME-3M melanoma = test system: MALME-3M melanoma
MCF7 breast = test system: MCF7 breast
MDA-MB-231 breast = test system: MDA-MB-231 breast
MDA-MB-435 = test system: MDA-MB-435
MDA-N = test system: MDA-N
MOLT-4 leukemia = test system: MOLT-4 leukemia
NCI-H226 lung = test system: NCI-H226 lung
NCI-H23 lung = test system: NCI-H23 lung
NCI-H460 lung = test system: NCI-H460 lung
NCI-H522 lung = test system: NCI-H522 lung
NCI/ADR-RES ovarian = test system: NCI/ADR-RES ovarian
OVCAR-3 ovarian = test system: OVCAR-3 ovarian
OVCAR-4 ovarian = test system: OVCAR-4 ovarian
OVCAR-5 ovarian = test system: OVCAR-5 ovarian
OVCAR-8 ovarian = test system: OVCAR-8 ovarian
PC-3 prostate = test system: PC-3 prostate
RPMI-8226 leukemia = test system: RPMI-8226 leukemia
RXF 393 renal = test system: RXF 393 renal
SF-268 CNS = test system: SF-268 CNS
SF-295 CNS = test system: SF-295 CNS
SF-539 CNS = test system: SF-539 CNS
SK-MEL-2 melanoma = test system: SK-MEL-2 melanoma
SK-MEL-28 melanoma = test system: SK-MEL-28 melanoma
SK-MEL-5 melanoma = test system: SK-MEL-5 melanoma
SK-OV-3 ovarian = test system: SK-OV-3 ovarian
SN12C renal = test system: SN12C renal
SNB-19 CNS = test system: SNB-19 CNS
SNB-75 CNS = test system: SNB-75 CNS
SR leukemia = test system: SR leukemia
SW-620 colon = test system: SW-620 colon
T-47D breast = test system: T-47D breast
TK-10 renal = test system: TK-10 renal
U251 CNS = test system: U251 CNS
UACC-257 melanoma = test system: UACC-257 melanoma
UACC-62 melanoma = test system: UACC-62 melanoma
UO-31 renal = test system: UO-31 renal
DMS 114 small cell lung = test system: DMS 114 small cell lung
DMS 273 small cell lung = test system: DMS 273 small cell lung
HOP-18 NSCLC = test system: HOP-18 NSCLC
KM20L2 colon = test system: KM20L2 colon
LXFL 529 NSCLC = test system: LXFL 529 NSCLC
M19-MEL melanoma = test system: M19-MEL melanoma
SNB-78 CNS = test system: SNB-78 CNS
DLD-1 colon = test system: DLD-1 colon
XF 498 CNS = test system: XF 498 CNS

## COC(=O)CC1(O)C=CC(=O)C=C1
786-0 renal
  TGI: 6.89 µM
A498 renal
  TGI: 15.9 µM
A549 NSCLC
  TGI: 39.4 µM
ACHN renal
  TGI: 9.79 µM
BT-549 breast
  TGI: 18.1 µM
CAKI-1 renal
  TGI: 11.6 µM
CCRF-CEM leukemia
  TGI: 6.11 µM
COLO 205 colon
  TGI: 17.8 µM
DU-145 prostate
  TGI: 18.6 µM
EKVX NSCLC
  TGI: 15.5 µM
HCC-2998 colon
  TGI: 29.4 µM
HCT-116 colon
  TGI: 26.7 µM
HCT-15 colon
  TGI: 8.76 µM
HL-60(TB) leukemia
  TGI: > 22.6 µM
HOP-62 NSCLC
  TGI: 18.1 µM
HOP-92 NSCLC
  TGI: 22.6 µM
HS 578T breast
  TGI: 39.4 µM
HT29 colon
  TGI: 17.6 µM
IGROV1 ovarian
  TGI: 5.04 µM
K-562 leukemia
  TGI: > 100 µM
KM12 colon
  TGI: 3.46 µM
LOX IMVI melanoma
  TGI: 6.76 µM
M14 melanoma
  TGI: 16.6 µM
MALME-3M melanoma
  TGI: 6.9 µM
MCF7 breast
  TGI: 15.2 µM
MDA-MB-231 breast
  TGI: 6.51 µM
MDA-MB-435
  TGI: 21.8 µM
MDA-N
  TGI: 20.9 µM
MOLT-4 leukemia
  TGI: 7.25 µM
NCI-H226 lung
  TGI: 26.8 µM
NCI-H23 lung
  TGI: 10.9 µM
NCI-H460 lung
  TGI: 5.02 µM
NCI-H522 lung
  TGI: 4.04 µM
NCI/ADR-RES ovarian
  TGI: 32.4 µM
OVCAR-3 ovarian
  TGI: 13.7 µM
OVCAR-4 ovarian
  TGI: 11.6 µM
OVCAR-5 ovarian
  TGI: 25 µM
OVCAR-8 ovarian
  TGI: 17.3 µM
PC-3 prostate
  TGI: 6.35 µM
RPMI-8226 leukemia
  TGI: 31.4 µM
RXF 393 renal
  TGI: 17.9 µM
SF-268 CNS
  TGI: 14.8 µM
SF-295 CNS
  TGI: 17.7 µM
SF-539 CNS
  TGI: 12.8 µM
SK-MEL-2 melanoma
  TGI: 14.6 µM
SK-MEL-28 melanoma
  TGI: 7.47 µM
SK-MEL-5 melanoma
  TGI: 10.3 µM
SK-OV-3 ovarian
  TGI: 29.6 µM
SN12C renal
  TGI: 37.6 µM
SNB-19 CNS
  TGI: 21.3 µM
SNB-75 CNS
  TGI: 14.2 µM
SR leukemia
  TGI: > 100 µM
SW-620 colon
  TGI: 27.3 µM
T-47D breast
  TGI: 25.7 µM
TK-10 renal
  TGI: 16 µM
U251 CNS
  TGI: 18.5 µM
UACC-257 melanoma
  TGI: 7.64 µM
UACC-62 melanoma
  TGI: 5 µM
UO-31 renal
  TGI: 9.93 µM

## COc1ccc(N2C(=O)[C@@H](N=[N+]=[N-])[C@@H]2[C@H]2COC(C)(C)O2)cc1
786-0 renal
  TGI: > 100 µM
A549 NSCLC
  TGI: > 100 µM
ACHN renal
  TGI: > 100 µM
CAKI-1 renal
  TGI: > 100 µM
CCRF-CEM leukemia
  TGI: > 100 µM
COLO 205 colon
  TGI: > 100 µM
DMS 114 small cell lung
  TGI: > 100 µM
DMS 273 small cell lung
  TGI: > 100 µM
EKVX NSCLC
  TGI: > 100 µM
HCC-2998 colon
  TGI: > 100 µM
HCT-116 colon
  TGI: > 100 µM
HCT-15 colon
  TGI: > 100 µM
HL-60(TB) leukemia
  TGI: > 100 µM
HOP-18 NSCLC
  TGI: > 100 µM
HOP-62 NSCLC
  TGI: > 100 µM
HOP-92 NSCLC
  TGI: > 100 µM
HT29 colon
  TGI: > 100 µM
IGROV1 ovarian
  TGI: > 100 µM
K-562 leukemia
  TGI: > 100 µM
KM12 colon
  TGI: > 100 µM
KM20L2 colon
  TGI: > 100 µM
LXFL 529 NSCLC
  TGI: > 100 µM
M14 melanoma
  TGI: > 100 µM
M19-MEL melanoma
  TGI: > 100 µM
MALME-3M melanoma
  TGI: > 100 µM
MOLT-4 leukemia
  TGI: > 100 µM
NCI-H226 lung
  TGI: > 100 µM
NCI-H23 lung
  TGI: > 100 µM
NCI-H460 lung
  TGI: > 100 µM
NCI-H522 lung
  TGI: > 100 µM
OVCAR-3 ovarian
  TGI: > 100 µM
OVCAR-4 ovarian
  TGI: > 100 µM
OVCAR-5 ovarian
  TGI: > 100 µM
OVCAR-8 ovarian
  TGI: > 100 µM
RPMI-8226 leukemia
  TGI: > 100 µM
RXF 393 renal
  TGI: > 100 µM
SF-268 CNS
  TGI: > 100 µM
SF-295 CNS
  TGI: > 100 µM
SF-539 CNS
  TGI: > 100 µM
SK-MEL-2 melanoma
  TGI: > 100 µM
SK-MEL-28 melanoma
  TGI: > 100 µM
SK-MEL-5 melanoma
  TGI: > 100 µM
SK-OV-3 ovarian
  TGI: > 100 µM
SN12C renal
  TGI: > 100 µM
SNB-19 CNS
  TGI: > 100 µM
SNB-75 CNS
  TGI: > 100 µM
SNB-78 CNS
  TGI: > 100 µM
SR leukemia
  TGI: > 100 µM
SW-620 colon
  TGI: > 100 µM
U251 CNS
  TGI: > 100 µM
UACC-257 melanoma
  TGI: > 100 µM
UACC-62 melanoma
  TGI: > 100 µM
UO-31 renal
  TGI: > 100 µM

## CCOC(=O)c1sc2c(C(=O)OCC)n3cc(C)cc(C)c3c2c1O
786-0 renal
  TGI: > 100 µM
A549 NSCLC
  TGI: > 100 µM
ACHN renal
  TGI: > 100 µM
CAKI-1 renal
  TGI: > 100 µM
CCRF-CEM leukemia
  TGI: > 100 µM
COLO 205 colon
  TGI: > 100 µM
DLD-1 colon
  TGI: > 100 µM
DMS 114 small cell lung
  TGI: > 100 µM
DMS 273 small cell lung
  TGI: > 100 µM
EKVX NSCLC
  TGI: 90 µM
HCC-2998 colon
  TGI: > 100 µM
HCT-116 colon
  TGI: > 100 µM
HOP-92 NSCLC
  TGI: > 100 µM
HT29 colon
  TGI: > 100 µM
IGROV1 ovarian
  TGI: > 100 µM
K-562 leukemia
  TGI: > 100 µM
KM12 colon
  TGI: > 100 µM
KM20L2 colon
  TGI: > 100 µM
LOX IMVI melanoma
  TGI: > 100 µM
LXFL 529 NSCLC
  TGI: > 100 µM
M14 melanoma
  TGI: > 100 µM
M19-MEL melanoma
  TGI: > 100 µM
MALME-3M melanoma
  TGI: > 100 µM
MOLT-4 leukemia
  TGI: > 100 µM
NCI-H226 lung
  TGI: > 100 µM
NCI-H23 lung
  TGI: > 100 µM
NCI-H460 lung
  TGI: > 100 µM
NCI-H522 lung
  TGI: > 100 µM
OVCAR-3 ovarian
  TGI: > 100 µM
OVCAR-4 ovarian
  TGI: > 100 µM
OVCAR-5 ovarian
  TGI: > 100 µM
OVCAR-8 ovarian
  TGI: > 100 µM
RXF 393 renal
  TGI: > 100 µM
SF-268 CNS
  TGI: > 100 µM
SF-295 CNS
  TGI: > 100 µM
SF-539 CNS
  TGI: > 100 µM
SK-MEL-2 melanoma
  TGI: > 100 µM
SK-MEL-28 melanoma
  TGI: > 100 µM
SK-MEL-5 melanoma
  TGI: > 100 µM
SK-OV-3 ovarian
  TGI: > 100 µM
SN12C renal
  TGI: > 100 µM
SNB-19 CNS
  TGI: > 100 µM
SNB-75 CNS
  TGI: > 100 µM
SNB-78 CNS
  TGI: > 100 µM
SR leukemia
  TGI: > 100 µM
SW-620 colon
  TGI: > 100 µM
TK-10 renal
  TGI: > 100 µM
U251 CNS
  TGI: > 100 µM
UACC-62 melanoma
  TGI: > 100 µM
UO-31 renal
  TGI: > 100 µM

## C/C=C(\NC(=O)C(CCCCN)NC(=O)C(C)NC(=O)C1CSC(C)C(NC(=O)C2CSCC(NC(=O)C(C)NC(=O)C(N)C(C)CC)C(=O)NC(CCCCN)C(=O)NC(Cc3ccccc3)C(=O)NC(CC(C)C)C(=O)N2)C(=O)N2CCCC2C(=O)NCC(=O)N1)C(=O)NCC(=O)NC1CSCC2NC(=O)C(Cc3ccc(O)cc3)NC(=O)C(CSC=CNC2=O)NC(=O)C(CC(N)=O)NC(=O)C(Cc2ccccc2)NC1=O (stereo not given)
DLD-1 colon
  TGI: > 100 µM
DMS 114 small cell lung
  TGI: > 100 µM
DMS 273 small cell lung
  TGI: > 100 µM
LXFL 529 NSCLC
  TGI: > 100 µM
M19-MEL melanoma
  TGI: > 100 µM
NCI-H23 lung
  TGI: > 100 µM
SNB-78 CNS
  TGI: > 100 µM
XF 498 CNS
  TGI: > 100 µM

Source: PubChem BioAssay (NCI)
